Reference: patent publication US12173188B2, “Ultraviolet absorbing agent, ultraviolet absorbing composition, ultraviolet absorbing film, laminate, and novel compound” (FUJIFILM CORPORATION, priority 2019, dated 2024)

How the values were obtained:
[1] = Light fastness of laminate, metal halide lamp irradiation; format: physicochemical; conditions: change in transmittance at 380 nm after 60 hours metal halide lamp, 90 mW/cm^2, 63° C., 50% RH
Experimental: First, the transmittance of the obtained laminate of the glass plate and the ultraviolet absorbing film at a wavelength of 380 nm was measured using a spectrophotometer (model number: UV 3150) manufactured by Shimadzu Corporation.
Next, using a super-accelerated weather fastness tester [product name: EYE SUPER UV Tester, IWASAKI ELECTRIC Co., Ltd.], the obtained laminate of the glass plate and the ultraviolet absorbing film was irradiated with light (about 290 nm […]) of a metal halide lamp for 60 hours under the conditions of an illuminance of 90 mW/cm^2 ([…]), a temperature of 63° C., and a relative humidity of 50%.
After light irradiation, the transmittance of the obtained laminate of the glass plate and the ultraviolet absorbing film at a wavelength of 380 nm was measured in the same manner as described above using a spectrophotometer (model number: UV 3150) manufactured by Shimadzu Corporation.
The width of change in transmittance at a wavelength of 380 nm before and after the light irradiation was calculated, and the light fastness was evaluated as “particularly good” in a case where the width of change was less than 5%, the light fastness was evaluated as “good” in a case where the width of change was 5% or more and less than 10%, and the light fastness was evaluated as “bad” in a case where the width of change was 10% or more.

[2] = Moist heat resistance test of laminate (60° C., 90% RH, 160 hours); format: physicochemical; conditions: for Haze after moist heating: after 160 hours at 60° C.; for Haze after moist heating / Moist heat resistance: 90% RH; for Moist heat resistance: change in transmittance at 380 nm after 160 hours at 60° C.
Experimental: The moist heat test was carried out with a constant temperature and humidity device (IG420, manufactured by Yamato Scientific Co., Ltd.) under the conditions of a temperature of 60° C. and a humidity of 90% RH. The transmittance at 380 nm after the lapse of 160 hours was measured by the above method. The width of change in transmittance at a wavelength of 380 nm before and after the moist heat resistance test was calculated, and the moist heat resistance was evaluated as “particularly good” in a case where the width of change was less than 5%, the moist heat resistance was evaluated as “good” in a case where the width of change was 5% or more and less than 10%, and the moist heat resistance was evaluated as “bad” in a case where the width of change was 10% or more.
The haze after the moist heat resistance test was measured by the same method as in (2. Initial haze) described above.

[3] = Solubility in distilled water at 25° C.; conditions: 24 hours standing
Experimental: The solubility of the specific ultraviolet absorbing agent in water in the present disclosure can be measured by the following method from the amount of the specific ultraviolet absorbing agent dissolved in 10 g of distilled water at 25° C.
After mixing 10 g of distilled water with 1 g of the specific ultraviolet absorbing agent, the resultant mixture is irradiated with ultrasonic waves at a liquid temperature of 25° C. for 15 minutes and then allowed to stand for 24 hours while the liquid temperature is maintained at 25° C. For ultrasonic irradiation, a desktop ultrasonic cleaner 1510, manufactured by Branson Ultrasonics, Emerson Japan, Ltd. is used.
After being allowed to stand for 24 hours, filtration is carried out through a membrane filter (0.1 μm mesh, manufactured by [sequence] Co., Ltd.). The unfiltered specific ultraviolet absorbing agent is collected, dried, and then weighed. The amount of the unfiltered specific ultraviolet absorbing agent is subtracted from 1 g of the specific ultraviolet absorbing agent to obtain an amount of the specific ultraviolet absorbing agent dissolved in water, and the solubility of the specific ultraviolet absorbing agent in water is calculated from that the obtained amount value.

[4] = Maximum absorption wavelength by spectrophotometer; format: physicochemical; conditions: H2O
Experimental: The maximum absorption wavelength of the ultraviolet absorbing agent can be measured, for example, using a spectrophotometer. Examples of the device include a spectrophotometer UV3600 and an ultraviolet-visible-near infrared spectrophotometer UV 3150, manufactured by Shimadzu Corporation. In the present disclosure, the maximum absorption wavelength of the ultraviolet absorbing agent is measured using a spectrophotometer UV3600.
The measurement is carried out at room temperature (25° C.), and the absorbance is measured using a spectrophotometer to obtain an absorption spectrum while air is referenced as a control as the measurement condition.
In a case where an absorbance at a wavelength in a predetermined wavelength range is measured, the maximum absorption wavelength, the transmittance, and the like can be calculated.

[5] = Molar absorption coefficient in pure water; format: physicochemical; conditions: 1.0 mg in 100 mL pure water, 1 cm cell, at maximum absorption wavelength; in L/(mol·cm) (unit assumed)
Experimental: After dissolving 1.0 mg of a sample in 100 mL of pure water, the absorbance of the aqueous solution was measured in a 1 cm cell using a spectrophotometer (model number: UV 3150) manufactured by Shimadzu Corporation. From the measurement results, the molar absorption coefficient was calculated from the value of the absorbance at the maximum absorption wavelength using the Lambert-Beer law.

[6] = 5.0 parts agent/45.0 parts PVA film
[7] = 2.0 parts agent/98.0 parts PVA film

Solubility (25° C.) [3]	Compound	Light fastness [1, 6]	Haze after moist heating [2, 6]	Moist heat resistance [2, 6]	other results
–	O=C(c1ccc(O)cc1O)c1ccc(O)cc1O [Compound H-1, reference compound]	Bad (the width of change was 10% or more)	6.1%	Bad (the width of change was 10% or more)	–
–	O=S(=O)([O-])CCNc1nc(NCCS(=O)(=O)[O-])nc(Nc2ccc(C=Cc3ccc(Nc4nc(NCCS(=O)(=O)[O-])nc(NCCS(=O)(=O)[O-])n4)cc3S(=O)(=O)[O-])c(S(=O)(=O)[O-])c2)n1.[Na+].[Na+].[Na+].[Na+].[Na+].[Na+] [Compound H-3, reference compound]	Bad (the width of change was 10% or more)	9.5%	Bad (the width of change was 10% or more)	–
–	CCCCN1C(=O)C(=C2Sc3c(OCCCCS(=O)(=O)[O-])c4c(c(OCCCCS(=O)(=O)[O-])c3S2)SC(=C2C(=O)N(CCCC)N(CCCC)C2=O)S4)C(=O)N1CCCC.[Na+].[Na+] [Compound H-4, reference compound]	Good (the width of change was 5% or more and less than 10%)	18%	Bad (the width of change was 10% or more)	haze after the moist heat resistance test ([2]; in words, summary of Table 1): significantly increased
–	CCCCC(CC)COc1ccc(OCC(CC)CCCC)c2c1SC(=C1C(=O)N(CCCC)N(CCCC)C1=O)S2 (centres unmarked) [Compound H-5, reference compound]	Bad (the width of change was 10% or more)	68%	Bad (the width of change was 10% or more)	–
3.2 % by mass	CC(C)(C)C(=O)C(C#N)=C1Sc2c(OCCCCS(=O)(=O)[O-])ccc(OCCCCS(=O)(=O)[O-])c2S1.[Na+].[Na+] [Compound M-1]	–	–	–	–
2.9 % by mass	N#CC(C(=O)c1ccccc1)=C1Sc2c(OCCCS(=O)(=O)[O-])ccc(OCCCS(=O)(=O)[O-])c2S1.[Na+].[Na+] [Compound M-2]	–	–	–	–
3.1 % by mass	N#CC(C#N)=C1Sc2c(OCCCCS(=O)(=O)[O-])ccc(OCCCCS(=O)(=O)[O-])c2S1.[Na+].[Na+] [Compound M-3]	Particularly good (the width of change was less than 5%)	0.24%	Particularly good (the width of change was less than 5%)	Maximum absorption wavelength [4]: 372 nm; Molar absorption coefficient [5]: 28,100; Light fastness [1, 7]: Particularly good (the width of change was less than 5%); Haze after moist heating [2, 7]: 0.1%; Moist heat resistance [2, 7]: Particularly good (the width of change was less than 5%)
3.1 % by mass	CON=CC(C#N)=C1Sc2c(OCCCCS(=O)(=O)[O-])ccc(OCCCCS(=O)(=O)[O-])c2S1.[Na+].[Na+] [Compound M-5]	Particularly good (the width of change was less than 5%)	0.28%	Particularly good (the width of change was less than 5%)	Maximum absorption wavelength [4]: 390 nm; Molar absorption coefficient [5]: 27,400
2.0 % by mass	N#CC(C#N)=C1Sc2c(OCCCCP(=O)(O)O)ccc(OCCCCP(=O)(O)O)c2S1 [Compound M-7]	–	–	–	–
2.6 % by mass	N#CC(C#N)=C1Sc2c(OC(=O)CCC(=O)[O-])ccc(OC(=O)CCC(=O)[O-])c2S1.[Na+].[Na+] [Compound M-8]	Particularly good (the width of change was less than 5%)	0.4%	Good (the width of change was 5% or more and less than 10%)	Light fastness [1, 7]: Particularly good (the width of change was less than 5%); Haze after moist heating [2, 7]: 0.3%; Moist heat resistance [2, 7]: Particularly good (the width of change was less than 5%)
2.1 % by mass	CCCCOc1ccc(OCCCC)c2c1SC(=C(C#N)C(=O)OCCCCS(=O)(=O)[O-])S2.[Na+] [Compound M-9]	–	–	–	–
1.9 % by mass	CCCCOc1ccc(OCCCC)c2c1SC(=C(C#N)C(=O)OCCCCP(=O)(O)O)S2 [Compound M-10]	–	–	–	–
–	CCCCN1C(=O)C(=C2Sc3c(OCCCCS(=O)(=O)[O-])ccc(OCCCCS(=O)(=O)[O-])c3S2)C(=O)N1CCCC.[Na+].[Na+] [Compound M-11]	Particularly good (the width of change was less than 5%)	0.26%	Particularly good (the width of change was less than 5%)	Maximum absorption wavelength [4]: 387 nm; Molar absorption coefficient [5]: 35,900; Light fastness [1, 7]: Particularly good (the width of change was less than 5%); Haze after moist heating [2, 7]: 0.1%; Moist heat resistance [2, 7]: Particularly good (the width of change was less than 5%)
3.6 % by mass	CCCCN1C(=O)C(=C2Sc3c(OCCCS(=O)(=O)[O-])ccc(OCCCS(=O)(=O)[O-])c3S2)C(=O)N1CCCC.[Na+].[Na+] [Compound M-12]	–	–	–	–
3.3 % by mass	O=C1C(=C2Sc3c(OCCCCS(=O)(=O)[O-])ccc(OCCCCS(=O)(=O)[O-])c3S2)C(=O)N(c2ccccc2)N1c1ccccc1.[Na+].[Na+] [Compound M-13]	–	–	–	–
3.7 % by mass	CCCCOc1ccc(OCCCCS(=O)(=O)[O-])c2c1SC(=C1C(=O)N(CCCCS(=O)(=O)[O-])N(CCCCS(=O)(=O)[O-])C1=O)S2.[Na+].[Na+].[Na+] [Compound M-14]	–	–	–	–
2.9 % by mass	CCCCC(CC)COc1ccc(OCC(CC)CCCC)c2c1SC(=C1C(=O)N(CCCCS(=O)(=O)[O-])N(CCCCS(=O)(=O)[O-])C1=O)S2.[Na+].[Na+] (centres unmarked) [Compound M-15]	–	–	–	–
2.9 % by mass	O=C1C(=C2Sc3c(OCCS(=O)(=O)[O-])ccc(OCCS(=O)(=O)[O-])c3S2)C(=O)N(CCCS(=O)(=O)[O-])N1CCCS(=O)(=O)[O-].[Na+].[Na+].[Na+].[Na+] [Compound M-16]	–	–	–	–
3.0 % by mass	CCCCN1C(=O)C(=C2Sc3c(OCCCCP(=O)(O)O)ccc(OCCCCP(=O)(O)O)c3S2)C(=O)N1CCCC [Compound M-17]	–	–	–	–
3.0 % by mass	CCCCOc1ccc(OCCCC)c2c1SC(=C1C(=O)N(CCCCP(=O)(O)O)N(CCCCP(=O)(O)O)C1=O)S2 [Compound M-19]	–	–	–	–
2.9 % by mass	CCCCOc1ccc(OCCCC)c2c1SC(=C1C(=O)N(CCCCC(=O)[O-])N(CCCCC(=O)[O-])C1=O)S2.[Na+].[Na+] [Compound M-20]	–	–	–	–
